Results reported in US12678503B2, “Water-activated mucoadhesive compositions and methods of delivering biologically active substances” (The Brigham and Women's Hospital, Inc., priority 2019, dated 2026).

Assays:
[1] = Aluminum release in simulated GI fluids; type: physicochemical; details: simulated gastric fluid (SGF, pH 1.0)
[2] = Film thickness of hydrated paste on mucus-coated cellulose nitrate membrane; type: physicochemical
Experimental: Five hundred milligrams of AF-LuCI (excess) was added onto mucus-coated cellulose nitrate membrane (disk shape with 2 cm diameter) and DDW (pH 5.5), SGF (pH 1.0), or SIF (pH 6.5) was added immediately. After AF-LuCI becomes a paste and flow to form a layer (3-5 minutes), supernatant was removed and the paste-coated membrane was quickly frozen in −80° C. freezer to measure the thickness. The thickness of the mucus-coated cellulose nitrate membrane without AF-LuCI was separately measured as a baseline.

[3] = Integrative barrier property test, glucose permeation in Franz-cell system
Experimental: To examine the barrier properties of pastes formed from the new hydratable compositions in vitro, a mucin-coated membrane was prepared to mimic the mucus surface of the intestine. Specifically, a cellulose nitrate membrane (pore size: 0.2 μm, Whatman, Germany) was incubated in a 3% w/v porcine stomach mucin (Sigma Aldrich, USA) solution in PBS (pH 7.4) and gently shaken for 2 hours at room temperature. The membrane was washed with distilled deionized water (DDW, pH 5.5) to remove the excess mucin solution. The mucin-coated membranes were used within 1 hour following preparation.
To measure the thickness of the mucin layer, the mucin-coated membrane was lyophilized and imaged using scanning electron microscope (SEM) and the thickness of randomly selected positions was examined (average mucin layer thickness: ~100 μm). To test the nutrient barrier properties, 10 mg of sucralfate or AF-LuCI was added evenly to a mucin-coated membrane and vertically tilted for 1 minute. […]
The permeation tests were performed in triplicate for each material. The glucose concentration was measured using high performance liquid chromatography (HPLC, Agilent, USA) with an analytical C18 column (Zorbax Eclipse XDB-C18, Agilent). […]

[4] = Degree of polymerization of PAC by titration; type: physicochemical; details: native sucralfate
Experimental: Experiments were performed to determine the degree of polymerization in AF-LuCI by using the titration-based methods as described in Nail, S. L., White, J. L. & Hem, S. L. Structure of Aluminum Hydroxide Gel I. Initial Precipitate. Journal of Pharmaceutical Sciences 65, 1188-1191 (1976); and Hem, J. D. & Roberson, C. E. Form and stability of aluminum hydroxide complexes in dilute solution. Geol Surv Water-Supply Pap (US); (United States) (1967). The degree of polymerization of PACs in AF-LuCI and sucralfate molecule was determined using titration method based on the reversible protonation of hydroxo linkages in the PAC backbone. Approximately 10 mg of AF-LuCI were treated with 0.1N, 0.2N, 0.3N, 0.4N and 0.5N HCl solutions in different tubes. The samples were vortexed for 5 seconds followed by 1-hour incubation. The supernatant of each sample was then collected and the pH was measured using a pH meter. The same procedures were performed with sucralfate. The pH of the HCl solutions was measured as the control group and the difference between the control and the treated groups was calculated. The difference in pH corresponds to the proton consumption and the amount of hydroxo linkages that were then used to calculate the number of aluminum per molecule.

[5] = Dissolution in NaCl solutions; type: physicochemical; details: saturated NaCl solutions (~0.35 g/ml in water)
Excerpt: […] This is a characteristic behavior of liquid complex coacervate system (See Wang, Q. & Schlenoff, J. B. The Polyelectrolyte Complex/Coacervate Continuum. Macromolecules 47, 3108-3116 (2014); de Kruif, C. G., Weinbreck, F. & de Vries, R. Complex coacervation of proteins and anionic polysaccharides. Current Opinion in Colloid & Interface Science 9, 340-349 (2004); Veis, A. & Aranyi, C. PHASE SEPARATION IN POLYELECTROLYTE SYSTEMS. I. COMPLEX COACERVATES OF GELATIN. J. Phys. Chem. 64, 1203-1210 (1960)).

Sprague-Dawley (SD) rats = assay: microCT imaging of coating in the GI tract; type: in vivo, rat; details: gavaged to SD rats
Experimental: Sprague-Dawley (SD) rats were gavaged into the stomach with hydrated AF-LuCI pastes and imaged using micro-computed tomography (microCT). AF-LuCI pastes could be visualized on gastro-intestinal tissues without additional contrast agents owing to the presence of aluminum. For these experiments, rats were fasted overnight and gavaged directly into the stomach with 450 mg/kg rat of AF-LuCI paste hydrated in 0.9 w/v % normal saline solution. After 1 hr and 5 hr, the rats were anesthetized using isoflurane and imaged using microCT. […] FIG. 18A is a coronal plane view of SD rats gavaged with AF-LuCI 1 hr before the imaging. AF-LuCI formed a layer in stomach, duodenum and proximal intestine. FIGS. 18B and 18C are 3-dimentional views of SD rats gavaged with AF-LuCI (FIG. 18B) 1 hr and (FIG. 18C) 5 hr before the microCT imaging. AF-LuCI is attached on stomach, duodenum and proximal intestine at least for 5 hrs after gavage while sucralfate only formed sparsely scattered aggregates on the healthy mucosa

SD rats = assay: OGTT with different viscosity, dose and dosing schedule (Example 12); type: in vivo, rat; details: normal SD rats
Experimental: Experiments were then performed to assess if the AF-LuCI coating could lower glucose response. To evaluate the in vivo effect of the barrier coating from AF-LuCI on postprandial glucose response, SD rats were pre-gavaged with the AF-LuCI pastes and standard OGTT was performed. AF-LuCI at different dosage but also different viscosity. It was hypothesized that low viscosity product may lead to barrier formation in larger area and earlier duodenal coating (onset of action). For these studies, rats were fasted overnight and gavaged with AF-LuCI pastes (dose: 450-2,700 mg/kg rat; viscosity: high and low), or saline as a control. One or three hours later, glucose solution (2 g/kg rat) was gavaged and changes in serum glucose levels measured every 30 minutes over the subsequent 120 min (n=4 per arm). Tail vein blood was used to measure glucose levels using glucometer. […] The time gap between AF-LuCI administration and glucose gavage also affects the reduction of blood glucose responses differently depending on the AF-LuCI formulations (FIG. 19C). 3 hr after treatment with 450 mg/kg rat lower viscosity AF-LuCI (i.e. 5 Pa·s), the reduction in glucose response decreased to 7%. In FIG. 19, AF-LuCI fabricated using 0.4N, 0.5N, and 0.6N HCl solution and rehydrated in 0.9 w/v % normal saline is denoted as “Viscosity High”, “Viscosity Mid”, and “Viscosity Low”, respectively.

[6] = cited from earlier work

release of aluminum [1]: 15 w/w % of total aluminum content | layer formation ([2]; distilled water or SIF): did not form any layer | thickness of layer ([2]; only in SGF (pH 1.0)): ~ 250 μm | number of aluminum ions per molecule [4]: 56.1±3.0 aluminum per molecule | amount dissolved [5]: Less than 5 w/w % | layer formation in the GI tract (microCT) (Sprague-Dawley (SD) rats): did not form a layer
Substance: sucralfate
glucose penetration blocked ([3]; SGF, 10 mg on mucin-coated membrane, 120 g/L glucose, 5 minutes): ~ 60% | glucose blocked ([3]; applied on mucus-coated membrane in pH 1.0, then pH 4.0): 16.5% | area under curve (AUC) in OGTT vs saline treated group (SD rats): no significant difference | aluminum content of sucralfate (USP regulation) [6]: 15.5-18.5 w/w % of the total weight
